From patent US7371751B2, “Thiazole derivatives” (Hoffmann-La Roche Inc., priority 2003, dated 2008)
Read-outs that look alike come from different tables or passages of the source.

Tests used:
[1] = biological target: T1, human cannabis CB1 receptor (Homo sapiens, UniProt P21554); experiment: Affinity for cannabinoid CB1 receptors, [3H]-CP-55,940 radioligand binding on HEK cell membrane preparations
T1 construct: expressed in transfected cells; host or cells: human embryonic kidney (HEK) cells, Semliki Forest Virus system, membrane preparation
Experimental: The affinity of the compounds of the invention for cannabinoid CB1 receptors was determined using membrane preparations of human embryonic kidney (HEK) cells in which the human cannabis CB1 receptor is transiently transfected using the Semliki Forest Virus system in conjunction with [3H]-CP-55,940 as radioligand. After incubation of a freshly prepared cell membrane preparation with the [3H]-ligand, with or without addition of compounds of the invention, separation of bound and free ligand was performed by filtration over glassfiber filters. Radioactivity on the filter was measured by liquid scintillation counting.

[2] = 5, 10 and 20 mg daily; compared to placebo; cited from earlier work
[3] = affinity for the CB1 receptor, [3H]-CP-55,940 as radioligand, HEK cell membranes, read-out: IC50

T1 sequence (P21554 whole entry): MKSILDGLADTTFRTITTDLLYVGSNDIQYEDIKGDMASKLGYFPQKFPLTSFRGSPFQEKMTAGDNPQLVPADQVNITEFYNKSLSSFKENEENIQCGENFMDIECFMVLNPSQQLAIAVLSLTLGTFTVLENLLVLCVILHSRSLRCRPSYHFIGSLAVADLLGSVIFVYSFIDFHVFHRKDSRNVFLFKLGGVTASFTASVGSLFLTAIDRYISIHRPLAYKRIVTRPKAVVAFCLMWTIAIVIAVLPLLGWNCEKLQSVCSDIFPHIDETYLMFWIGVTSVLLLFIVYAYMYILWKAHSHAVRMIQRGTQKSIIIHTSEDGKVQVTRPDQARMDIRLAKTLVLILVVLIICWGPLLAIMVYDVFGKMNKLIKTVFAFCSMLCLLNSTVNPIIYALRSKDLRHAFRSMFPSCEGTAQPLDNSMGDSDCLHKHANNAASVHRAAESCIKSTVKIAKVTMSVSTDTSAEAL

IC50 [1, 3] | Structure (SMILES) | IC50 [1] | other results
– | O=C(c1csc(N(C(=O)c2ccc(Cl)cc2Cl)c2ccc(Cl)cc2)n1)N1CCCC1 [Example 6, 2,4-Dichloro-N-(4-chloro-phenyl)-N-[4-(pyrrolidine-1-carbonyl)-thiazol-2-yl]-benzamide] | 610 nM | –
– | COc1ccc(N(C(=O)c2ccc(Cl)cc2Cl)c2nc(C(=O)NCc3ccccc3)cs2)cc1OC [Example 11, 2-[(2,4-Dichloro-benzoyl)-(3,4-dimethoxy-phenyl)-amino]-thiazole-4-carboxylic acidbenzylamide] | 810 nM | –
850 nM | COc1ccc(N(C(=O)c2ccccc2Cl)c2nc(C(=O)NC3CCCCC3)cs2)cc1OC [Example 18, 2-[(2-Chloro-benzoyl)-(3,4-dimethoxy-phenyl)-amino]-thiazole-4-carboxylic acidcyclohexylamide] | – | –
– | COCCN(CCOC)C(=O)c1csc(N(C(=O)c2ccc(Cl)cc2Cl)c2ccc(Cl)cc2)n1 [Example 33, 2-[(4-Chloro-phenyl)-(2,4-dichloro-benzoyl)-amino]-thiazole-4-carboxylic acid bis-(2-methoxy-ethyl)-amide] | 550 nM | –
810 nM | O=C(NCCc1cnc[nH]1)c1csc(N(C(=O)c2ccc(Cl)cc2Cl)c2ccc(Cl)cc2)n1 [Example 43] | – | –
– | CC(C)(C)N(CCO)C(=O)c1csc(N(C(=O)c2ccc(Cl)cc2Cl)c2ccc(Cl)cc2)n1 [Example 95, 2-[(4-Chloro-phenyl)-(2,4-dichloro-benzoyl)-amino]-thiazole-4-carboxylic acid tert-butyl-(2-hydroxy-ethyl)-amide] | 260 nM | –
430 nM | O=C(c1cnc(N(C(=O)c2ccc(Cl)cc2Cl)c2ccc(Cl)cc2)s1)N1CCSCC1 [Example 138, 2,4-Dichloro-N-(4-chlor-o-phenyl)-N-[5-(thio-morpholine-4-car-bonyl)-thiazol-2-yl]-benz-amide] | – | –
– | O=C(c1csc(N(C(=O)c2ccc(Cl)cc2Cl)c2ccc(OC(F)(F)F)cc2)n1)N1CCCC1 [Example 147, 2,4-Dichloro-N-[4-(pyrrolidine-1-carbonyl)thiazole-2-yl]-N-(4-trifluoromethoxy-phenyl)-benzamide] | 490 nM | –
– | Cc1c(C(=O)NN2CCCCC2)nn(-c2ccc(Cl)cc2Cl)c1-c1ccc(Cl)cc1 [SR 141716] | – | body weight [2]: significantly reduced body weight

Structure (SMILES) | IC50 [1, 3] | IC50 [1] | other results
CCOC(=O)c1csc(N(C(=O)c2ccc(Cl)cc2Cl)c2ccc(OC)c(OC)c2)n1 [Example 2, 2-[(2,4-Dichloro-benzoyl)-(3,4-dimethoxy-phenyl)-amino]-thiazole-4-carboxylic acid ethyl ester] | 510 nM | – | –
CCCCCN(C)C(=O)c1csc(N(C(=O)c2ccc(Cl)cc2Cl)c2ccc(Cl)cc2)n1 [Example 27, 2-[(4-Chloro-phenyl)-(2,4-dichloro-benzoyl)-amino]-thiazole-4-carboxylic acid methyl-pentyl-amide] | 520 nM | – | –
